Experimental data from patent US20030166290A1, “Low formaldehyde producing blood diluent” (priority 2002, published 2003).

Experiment: Formaldehyde production in test blood diluents containing antimicrobial agents (EPA Method 8315A)
Format: physicochemical
Details: when employed in the blood diluent of the invention
Protocol: Diluent components into which the listed antimicrobials were added were:
Each test diluent was assayed for formaldehyde production within about two weeks from time of production to determine if formaldehyde is produced. Different lots of the final diluent formulation were monitored for formaldehyde concentration over a year's time. […] This method entails derivitizing the diluent sample with 2,4-dinitrophenylhydrazine to convert the carbonyl groups of aldehydes present to the hydrazones. Each carbonyl compound present in the sample forms a separate hydrazone derivative and these individual derivatives are extracted from the diluent solution using an organic solvent. The individual hydrazone derivatives are separated and quantified by HPLC (High Performance Liquid Chromatography).

formaldehyde produced or contained: ≤ 1 ppm
Compound: O=[N+]([O-])C1(Br)COCOC1 [5-bromo-5-nitro-1,3-dioxane]
